Usually IC50 stands for the concentration that inhibits the measured activity by half. Low readings indicate inhibition by little substance, high ones a need for much substance.

The test deals with T1, rα1β1εδ nAChR (UniProt P20782+P25108+P25109+P25110).
T1 construct: expressed in transfected cells; host or cells: Xenopus laevis oocytes injected with cRNA
In words: cell-based. Details: species or system rodent: rat (α1, β1, and δ), mouse (ε).

T1 sequence (P20782 21-493): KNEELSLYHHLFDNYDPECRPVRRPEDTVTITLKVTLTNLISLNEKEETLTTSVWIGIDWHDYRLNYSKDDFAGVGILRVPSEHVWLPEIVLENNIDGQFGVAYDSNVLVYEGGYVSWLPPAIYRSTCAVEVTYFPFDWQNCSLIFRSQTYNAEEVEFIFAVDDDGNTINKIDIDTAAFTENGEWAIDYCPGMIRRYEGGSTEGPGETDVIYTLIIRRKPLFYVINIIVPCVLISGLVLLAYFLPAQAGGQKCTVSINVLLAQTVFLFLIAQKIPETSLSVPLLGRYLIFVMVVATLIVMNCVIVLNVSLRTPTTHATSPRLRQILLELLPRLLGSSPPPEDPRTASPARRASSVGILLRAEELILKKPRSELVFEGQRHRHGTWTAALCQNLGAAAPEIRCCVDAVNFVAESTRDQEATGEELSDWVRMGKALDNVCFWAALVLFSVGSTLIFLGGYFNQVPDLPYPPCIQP
T1 sequence (P25108 21-457): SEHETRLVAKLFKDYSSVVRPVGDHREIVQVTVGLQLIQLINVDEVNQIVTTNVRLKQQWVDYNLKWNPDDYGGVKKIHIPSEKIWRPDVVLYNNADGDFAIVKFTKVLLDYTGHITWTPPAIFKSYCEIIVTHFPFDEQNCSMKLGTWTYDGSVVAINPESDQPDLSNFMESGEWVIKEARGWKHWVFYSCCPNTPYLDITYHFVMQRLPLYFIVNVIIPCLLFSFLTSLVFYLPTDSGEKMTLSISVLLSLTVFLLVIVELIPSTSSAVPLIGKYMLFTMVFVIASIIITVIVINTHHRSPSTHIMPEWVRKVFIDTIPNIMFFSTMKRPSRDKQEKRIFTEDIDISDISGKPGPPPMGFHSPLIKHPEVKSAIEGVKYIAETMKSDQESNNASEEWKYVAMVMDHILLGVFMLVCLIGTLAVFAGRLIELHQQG
T1 sequence (P25109 24-501): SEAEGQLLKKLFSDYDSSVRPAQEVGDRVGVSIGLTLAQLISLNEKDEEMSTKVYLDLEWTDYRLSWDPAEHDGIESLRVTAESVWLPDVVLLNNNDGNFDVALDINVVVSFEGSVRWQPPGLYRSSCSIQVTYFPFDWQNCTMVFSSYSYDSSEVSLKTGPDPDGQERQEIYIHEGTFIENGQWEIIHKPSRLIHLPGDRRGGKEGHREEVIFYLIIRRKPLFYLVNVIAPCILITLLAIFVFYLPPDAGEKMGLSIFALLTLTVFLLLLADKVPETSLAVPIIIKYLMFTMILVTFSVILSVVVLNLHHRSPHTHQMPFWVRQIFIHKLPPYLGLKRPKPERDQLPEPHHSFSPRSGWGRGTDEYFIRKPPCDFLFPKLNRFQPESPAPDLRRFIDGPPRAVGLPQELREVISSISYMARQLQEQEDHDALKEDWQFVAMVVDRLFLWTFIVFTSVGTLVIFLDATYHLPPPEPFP
T1 sequence (P25110 22-517): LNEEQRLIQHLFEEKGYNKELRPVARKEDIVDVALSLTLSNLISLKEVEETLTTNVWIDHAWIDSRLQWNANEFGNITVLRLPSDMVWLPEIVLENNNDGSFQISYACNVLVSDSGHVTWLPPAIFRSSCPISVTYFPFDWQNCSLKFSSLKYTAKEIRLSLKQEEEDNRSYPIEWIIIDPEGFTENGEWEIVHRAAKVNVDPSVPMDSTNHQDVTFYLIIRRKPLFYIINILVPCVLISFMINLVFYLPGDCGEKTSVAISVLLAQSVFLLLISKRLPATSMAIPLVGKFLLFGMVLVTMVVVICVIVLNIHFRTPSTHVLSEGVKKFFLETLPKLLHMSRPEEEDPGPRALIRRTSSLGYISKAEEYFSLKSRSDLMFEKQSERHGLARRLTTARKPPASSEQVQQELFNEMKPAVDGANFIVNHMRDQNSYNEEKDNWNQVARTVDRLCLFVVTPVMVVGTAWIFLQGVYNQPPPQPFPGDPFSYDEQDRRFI

`CSCC[C@H](NC(=O)[C@H](CC(C)C)NC(=O)[C@H](C)N)C(=O)N[C@@H](CO)C(=O)N[C@H](C(=O)NCC(=O)N[C@H](C(=O)N[C@@H](CC(N)=O)C(=O)N[C@@H](Cc1ccc(O)cc1)C(=O)N[C@@H](CCCNC(=N)N)C(=O)N[C@@H](CC(C)C)C(=O)N[C@@H](CC(C)C)C(=O)N[C@@H](CCCCN)C(=O)N[C@H](C(=O)N[C@@H](CSCC(N)=O)C(=O)N[C@@H](CCCNC(=N)N)C(=O)NCC(=O)N[C@@H](CO)C(=O)NCC(=O)N[C@@H](CCCNC(=N)N)C(=O)N[C@@H](Cc1ccc(O)cc1)C(=O)N[C@@H](CSCC(N)=O)C(=O)N[C@@H](CCCNC(=N)N)C(=O)N[C@@H](CO)C(=O)N1CCC[C@H]1C(=O)N[C@@H](Cc1ccc(O)cc1)C(=O)O)[C@@H](C)O)[C@@H](C)O)[C@@H](C)O` [GeXXVIIA-L-Nter]: the IC50 turned out to be 2190 ± 240 nM and the “IC50 relative to GeXXVIIA-L, rα1β1εδ nAChR” value is “about three-fold higher than GeXXVIIA-L”.

(Values after PMC5484120 (Marine Drugs, 2017).)
